Results reported in patent US20220211692A1, “Modulators of the Cystic Fibrosis Transmembrane Conductance Regulator Protein and Methods of Use” (AbbVie Global Enterprises Ltd., priority 2021, published 2022).
Like-named read-outs stand apart in the source and are kept apart here.

Legend:
[1] = target: T1, F508del/F508del CFTR (Homo sapiens, UniProt P13569, DEL508-508); assay: Trans-Epithelial Current Clamp (TECC) assay using primary human bronchial epithelial cells; assay type: cell-based; conditions: for Emax (% Dual): maximum percent activity relative to positive control (co-corrector 0.15 μM + potentiator 0.45 μM = 100%); for EC50: primary hBE cells F508del/F508del, test corrector with co-corrector and potentiator, 18-24 hours, equivalent CFTR current
T1 construct: cells isolated from CF patients with the homozygous mutation; endogenous in cells; host or cells: primary human bronchial epithelial (hBE) cells from CF patients homozygous for F508del
T1 sequence (P13569 with tags, fused parts or gaps DEL508-508): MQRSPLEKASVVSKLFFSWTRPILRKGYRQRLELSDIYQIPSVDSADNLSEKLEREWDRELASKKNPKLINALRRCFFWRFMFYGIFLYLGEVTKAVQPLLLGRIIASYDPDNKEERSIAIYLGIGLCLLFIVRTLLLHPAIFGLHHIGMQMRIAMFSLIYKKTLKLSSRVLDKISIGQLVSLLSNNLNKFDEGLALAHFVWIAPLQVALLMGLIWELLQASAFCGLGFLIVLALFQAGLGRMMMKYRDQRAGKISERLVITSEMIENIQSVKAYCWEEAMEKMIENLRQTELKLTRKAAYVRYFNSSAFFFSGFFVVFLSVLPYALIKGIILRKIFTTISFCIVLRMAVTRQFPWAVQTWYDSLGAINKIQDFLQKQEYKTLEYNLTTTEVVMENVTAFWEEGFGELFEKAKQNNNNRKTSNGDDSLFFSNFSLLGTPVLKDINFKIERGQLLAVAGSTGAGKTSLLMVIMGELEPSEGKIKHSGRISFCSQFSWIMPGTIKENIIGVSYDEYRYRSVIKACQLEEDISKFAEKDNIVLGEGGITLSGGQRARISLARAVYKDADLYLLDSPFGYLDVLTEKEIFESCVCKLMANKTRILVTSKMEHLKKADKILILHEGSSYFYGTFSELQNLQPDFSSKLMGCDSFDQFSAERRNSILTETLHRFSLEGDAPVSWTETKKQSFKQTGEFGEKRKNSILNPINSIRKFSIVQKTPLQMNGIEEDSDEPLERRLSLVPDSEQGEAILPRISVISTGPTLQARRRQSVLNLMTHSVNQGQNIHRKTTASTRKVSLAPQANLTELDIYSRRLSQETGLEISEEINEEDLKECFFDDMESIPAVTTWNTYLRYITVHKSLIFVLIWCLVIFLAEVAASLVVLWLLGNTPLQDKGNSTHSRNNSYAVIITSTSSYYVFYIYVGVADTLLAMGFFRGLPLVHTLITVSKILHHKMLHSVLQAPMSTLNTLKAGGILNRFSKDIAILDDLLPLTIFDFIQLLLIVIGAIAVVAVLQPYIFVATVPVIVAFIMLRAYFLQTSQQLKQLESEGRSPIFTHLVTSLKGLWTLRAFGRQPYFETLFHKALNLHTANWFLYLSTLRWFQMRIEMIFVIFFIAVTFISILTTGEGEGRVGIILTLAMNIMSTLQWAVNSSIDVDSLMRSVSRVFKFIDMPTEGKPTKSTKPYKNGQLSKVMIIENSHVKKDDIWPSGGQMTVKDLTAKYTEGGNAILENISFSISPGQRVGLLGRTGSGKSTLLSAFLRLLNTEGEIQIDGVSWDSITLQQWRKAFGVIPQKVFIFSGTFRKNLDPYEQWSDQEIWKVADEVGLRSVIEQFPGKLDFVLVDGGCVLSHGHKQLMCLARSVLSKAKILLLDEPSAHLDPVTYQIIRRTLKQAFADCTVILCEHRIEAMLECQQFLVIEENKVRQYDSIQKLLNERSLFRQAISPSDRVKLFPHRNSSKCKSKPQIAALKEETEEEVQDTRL
Source text: A cell-based assay was developed using the primary human bronchial epithelial cells (hBE cells) with F508del/F508del CFTR and other mutations.
Primary human bronchial epithelial (hBE) cells from CFTR patients with homozygous F508del/F508del mutation were expanded from 1×10^6 to 250×10^6 cells (Neuberger, T et al., 2011, Methods Mol Biol 741:39-54). For this purpose, cells isolated from CF patients with the homozygous mutation, procured from the CF center tissue procurement and cell culture core at the Marsico Lung Institute at UNC (Randell), the Cystic Fibrosis translational research center at McGill University (University), and Rosalind Franklin University Medical School (RFUMS) were seeded onto 24 well Corning (Cat #3378) filter plates that were coated with 3T3 conditioned media and grown at an air-liquid interface for 35 days using an Ultroser® G supplemented differentiation media. All the primary human bronchial epithelial cells were collected in accordance with institutional review board approval protocols. Apical surface mucus was removed 72 hours before the experiment by incubating the apical surface of the cells for 30 minutes with 3 mM dithiothreitol (DTT) prepared in Dulbecco's phosphate buffered saline (DPBS) with Ca^2+ and Mg^2+. This was followed with aspiration of the mucus from the apical surface along with DPBS. The apical surface was re-washed with phosphate buffered saline (PBS) incubated for 30 minutes followed with aspiration. These hBE cells were then incubated with the desired concentrations of the test C2 corrector compounds along with co-corrector, 4-[(2R,4R)-4-({[1-(2,2-difluoro-1,3-benzodioxol-5-yl)cyclopropyl]carbonyl}amino)-7-(difluoromethoxy)-3,4-dihydro-2H-chromen-2-yl]benzoic acid and potentiator, (5-{3-amino-5-[4-(trifluoromethoxy)benzene-1-sulfonyl]pyridin-2-yl}-1,3,4-oxadiazol-2-yl)methanol, for 18-24 hours at 37° C., 5% CO2. The desired concentrations of the correctors and potentiator compounds were prepared from the 10 mM stocks in differentiation media and were always applied on the basolateral side of the epithelial cells. We also used an assay format where a fixed concentration of potentiator was added chronically along with the corrector compounds. This chronic treatment with the potentiator helped eliminate any interaction that might happen with CFTR modulators (correctors and potentiators) and thereby determined the true efficacy of the modulator combinations reflective of clinical relevance.
The assay uses a Transepithelial Current Clamp (TECC) (Vu, C B et al., 2017; J Med Chem 60:458-473) instrument that can measure the functionality of the mutated channel by measuring the equivalent CFTR current (IEQ) generated by the polarized primary epithelial cells. We used a TECC-24 with a 24-channel electrode manifold allowing for the simultaneous measurement of the transepithelial voltage, VT, and transepithelial resistance, RT, under current clamp conditions, from 24 filters using a 24 well Costar filter plate. The design of the filters in the 24 well filter plates was exactly the same as the design of an individual Transwell filter used in the classical Ussing Chamber with a surface area of 0.33 cm^2. Each measured VT values were corrected for the electrode offset potential measured using buffer alone in a separate plate, and each measured RT values were then corrected for the combined solution series and empty filter resistances. The corrected VT and RT values were then used to calculate the equivalent current, IEQ using Ohm's law (IEQ=VT/RT). The area under the curve (AUC) for the time period between the forskolin peak IEQ response and at the time of bumetanide addition was also calculated using a one-third trapezoid method, in addition to calculating the IEQ. The assay was run in a 24-well format and all 24-wells were measured at the same time point giving a higher throughput for this assay. […]

[2] = target: T2, F508delCFTR (Homo sapiens, UniProt P13569, DEL508-508); assay: Cell Surface Expression-Horse Radish Peroxidase (CSE-HRP) assay in CFBE41o-F508delCFTR-HRP cells; assay type: cell-based; conditions: for EC50: CFBE41o-F508delCFTR-HRP cells, 18-24 hours at 33° C.; for Maximum % activity (with co-corrector) / Emax: normalized to on-plate positive control; for Emax: read-out: Maximum % activity (without co-corrector)
T2 construct: expressed in transfected cells; host or cells: CFBE41o- human lung derived epithelial cell line, doxycycline-induced expression
T2 sequence (P13569 with tags, fused parts or gaps DEL508-508): as above
Description: A cellular assay for measuring the F508delCFTR cell surface expression after correction with test compounds either without or with a co-corrector (2 μM of 3-[(2R,4R)-4-({[1-(2,2-difluoro-1,3-benzodioxol-5-yl)cyclopropyl]carbonyl}amino)-7-methoxy-3,4-dihydro-2H-chromen-2-yl]benzoic acid), was developed in human lung derived epithelial cell line (CFBE41o-) (Veit G et al, (2012) Mol Biol Cell. 23(21): 4188-4202). The development was achieved by expressing the F508delCFTR mutation along with a horseradish peroxidase (HRP) in the fourth exofacial loop, and then measuring the HRP activity using luminescence readout from these cells, CFBE41o-F508delCFTR-HIRP, that were incubated overnight with the test corrector compounds, either without or with the co-corrector. For this primary assay, the CFBE41o-F508delCFTR-HRP cells were plated in 384-well plates (Greiner Bio-one; Cat 781080) at 4,000 cells/well along with 0.5 μg/mL doxycycline to induce the F508delCFTR-HRP expression and further incubated at 37° C., […] for 68-72 hours. The test compounds were then added either without or with a co-corrector at the required concentrations and further incubated for 18-24 hours at 33° C. The highest concentration tested was 20 μM or 30 μM (GI-1 to GIII-36) with an 8-point concentration response curve using a 3-fold dilution in both the test compound without or with the co-corrector. Three replicate plates were run to determine one EC50. All plates contained negative controls (dimethyl sulfoxide, DMSO) and positive control (2 μM or 3 μM (GI-1 to GIII-36) of 3-[(2R,4R)-4-({[1-(2,2-difluoro-1,3-benzodioxol-5-yl)cyclopropyl]carbonyl}amino)-7-methoxy-3,4-dihydro-2H-chromen-2-yl]benzoic acid) as well as on-plate concentration response of the positive control. Post incubation, the plates were washed 5× times with Dulbecco's phosphate buffered saline (DPBS), followed by the addition of the HRP substrate, luminol (50 μL), and measuring the HRP activity using luminescence readout on EnVision® Multilabel Plate Reader (Perkin Elmer; product number 2104-0010). The raw counts from the experiment were analyzed using Accelrys® Assay Explorer v3.3.
Z′ greater than 0.5 was used as passing quality control criteria for the plates. The Z′ is defined as:
1−[3*SDPositive Control+3*SDNegative Control/Absolute(MeanPositive Control−MeanNegative Control)]
The % activity measured at each of the 8 test concentrations of the test compound added either without or with a co-corrector (2 μM or 3 μM (GI-1 to GIII-36) of 3-[(2R,4R)-4-({[1-(2,2-difluoro-1,3-benzodioxol-5-yl)cyclopropyl]carbonyl}amino)-7-methoxy-3,4-dihydro-2H-chromen-2-yl]benzoic acid) was normalized to the on-plate positive control using the following formulae:
% activity (Test compound without co-corrector)=[(test compound without co-corrector response−DMSO response)/(positive control response−DMSO response)]*100
% activity (Test compound with co-corrector)=[(test compound with co-corrector response−DMSO response)/(positive control response−DMSO response)]*100
The maximum % activity achieved for the test compound either without or with a co-corrector at any tested concentration is presented in Table 3 along with the respective EC50's calculated using the following general sigmoidal curve with variable Hill slope equation (described as Model 42 in the Accelrys® Assay Explorer v3.3 software):
General sigmoidal curve with concentration, response, top, bottom, EC50 and Hill slope. This model describes a sigmoidal curve with an adjustable baseline, a. The equation can be used to fit curves where response is either increasing or decreasing with respect to the independent variable, “x”.

[3] = with co-corrector 2 μM, read-out: EC50 (with co-corrector)
[4] = without co-corrector, read-out: EC50 (without co-corrector)

SMILES	Emax (% Dual) [1] [% Dual]	EC50 [1] [nM]	EC50 [2, 3] [nM]	Maximum % activity (with co-corrector) ([2]; with co-corrector 2 μM) [%]	EC50 [2, 4] [nM]	Emax ([2]; without co-corrector) [%]
CCc1ccc(Oc2cccnc2OC(F)F)c([C@]2(C(=O)NS(=O)(=O)c3cccc4nc(C)ccc34)CCCO2)c1 [Example 26, (2S)-2-(2-{[2-(difluoromethoxy)pyridin-3-yl]oxy}-5-ethylphenyl)-N-(2-methylquinoline-5-sulfonyl)oxolane-2-carboxamide]	130	171	3270	828	3970	282
COc1ccc(C)cc1[C@@]1(C(=O)NS(=O)(=O)c2cccc3nc(C)ccc23)C[C@H](OC)CO1 [Example 28, (2R,4S)-4-methoxy-2-(2-methoxy-5-methylphenyl)-N-(2-methylquinoline-5-sulfonyl)oxolane-2-carboxamide]	182	1100	3470	513	4110	180
COc1ccc(C)cc1[C@@]1(C(=O)NS(=O)(=O)c2cccc3nc(C)ccc23)C[C@@H](OC)CO1 [Example 29, (2R,4R)-4-methoxy-2-(2-methoxy-5-methylphenyl)-N-(2-methylquinoline-5-sulfonyl)oxolane-2-carboxamide]	230	164	1210	587	1860	213
COc1ccc(C)cc1[C@@]1(C(=O)NS(=O)(=O)c2cccc3nc(C)ccc23)C[C@](C)(OC)CO1 [Example 30, (2R,4S)-4-methoxy-2-(2-methoxy-5-methylphenyl)-4-methyl-N-(2-methylquinoline-5-sulfonyl)oxolane-2-carboxamide]	197	331	–	–	2630	301
COc1ccc(C)cc1[C@]1(C(=O)NS(=O)(=O)c2cccc3nc(C)ccc23)C[C@@](C)(OC)CO1 [Example 31, (2S,4R)-4-methoxy-2-(2-methoxy-5-methylphenyl)-4-methyl-N-(2-methylquinoline-5-sulfonyl)oxolane-2-carboxamide]	117	> 5000	–	–	5160	100

Results, then the compound that gave them:

Emax (% Dual) [1] [% Dual]	EC50 [1] [nM]	EC50 [2, 3] [nM]	Maximum % activity (with co-corrector) ([2]; with co-corrector 2 μM) [%]	EC50 [2, 4] [nM]	Emax ([2]; without co-corrector) [%]	SMILES
200	589	1140	673	1950	235	CCc1ccc(Oc2ccccc2)c([C@]2(C(=O)NS(=O)(=O)c3cccc4nc(C)ccc34)CCCO2)c1 [Example 22, (2S)-2-(5-ethyl-2-phenoxyphenyl)-N-(2-methylquinoline-5-sulfonyl)oxolane-2-carboxamide]
241	20	480	–	1070	726	CCc1ccc(Oc2ccccc2)c([C@@]2(C(=O)NS(=O)(=O)c3cccc4nc(C)ccc34)CCCO2)c1 [Example 23, (2R)-2-(5-ethyl-2-phenoxyphenyl)-N-(2-methylquinoline-5-sulfonyl)oxolane-2-carboxamide]
167	> 800	2520	449	3630	141	CCc1ccc(Oc2cccnc2OC)c([C@]2(C(=O)NS(=O)(=O)c3cccc4nc(C)ccc34)CCCO2)c1 [Example 24, (2S)-2-{5-ethyl-2-[(2-methoxypyridin-3-yl)oxy]phenyl}-N-(2-methylquinoline-5-sulfonyl)oxolane-2-carboxamide]
279	30.6	580	954	1450	476	CCc1ccc(Oc2cccnc2OC)c([C@@]2(C(=O)NS(=O)(=O)c3cccc4nc(C)ccc34)CCCO2)c1 [Example 25, (2R)-2-{5-ethyl-2-[(2-methoxypyridin-3-yl)oxy]phenyl}-N-(2-methylquinoline-5-sulfonyl)oxolane-2-carboxamide]
212	4.6	650	–	1470	709	CCc1ccc(Oc2cccnc2OC(F)F)c([C@@]2(C(=O)NS(=O)(=O)c3cccc4nc(C)ccc34)CCCO2)c1 [Example 27, (2R)-2-(2-{[2-(difluoromethoxy)pyridin-3-yl]oxy}-5-ethylphenyl)-N-(2-methylquinoline-5-sulfonyl)oxolane-2-carboxamide]
